Data reported in patent US4605669A, “Lipoxygenase inhibiting naphthohydroxamic acids” (Abbott Laboratories, priority 1985, dated 1986).
Like-named read-outs stand apart in the source and are kept apart here. Blank lines part the entries; values can stand above or below the molecule they belong to.

Tests used:
Format in all cases: biochemical
5-lipoxygenase = molecular target: T1, 5-lipoxygenase (Rattus norvegicus, UniProt P12527); test: 5-Lipoxygenase IC50 determination (20,000×G supernatant of homogenized RBL-1 cells, radiolabeled arachidonic acid); conditions: 20,000×G supernatant from homogenized RBL-1 cells
T1 construct: homogenized RBL-1 cells; endogenous in cells; host or cells: RBL-1 cells (20,000×G supernatant of homogenate)
T1 sequence (P12527 1-673): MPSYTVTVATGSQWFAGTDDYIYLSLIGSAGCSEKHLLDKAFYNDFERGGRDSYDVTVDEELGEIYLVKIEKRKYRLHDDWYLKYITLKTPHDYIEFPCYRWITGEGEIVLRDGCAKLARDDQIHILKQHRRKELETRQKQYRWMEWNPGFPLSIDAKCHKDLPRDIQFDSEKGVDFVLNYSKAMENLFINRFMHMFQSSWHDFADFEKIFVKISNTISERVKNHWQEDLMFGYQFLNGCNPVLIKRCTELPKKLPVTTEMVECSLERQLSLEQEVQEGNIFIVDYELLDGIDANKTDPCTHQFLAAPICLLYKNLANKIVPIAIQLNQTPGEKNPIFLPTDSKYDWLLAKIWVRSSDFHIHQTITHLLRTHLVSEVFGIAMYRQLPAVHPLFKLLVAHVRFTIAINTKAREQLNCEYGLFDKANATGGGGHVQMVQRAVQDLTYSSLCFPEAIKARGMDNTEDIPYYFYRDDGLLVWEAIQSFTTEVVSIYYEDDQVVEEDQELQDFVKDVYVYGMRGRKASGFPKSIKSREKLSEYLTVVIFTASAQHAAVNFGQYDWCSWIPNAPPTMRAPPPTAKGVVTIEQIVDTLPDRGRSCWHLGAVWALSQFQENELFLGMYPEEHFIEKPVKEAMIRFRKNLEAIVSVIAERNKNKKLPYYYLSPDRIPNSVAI
Protocol: (§1) Reactions were initiated by the addition of radiolabeled arachidonic acid and terminated by acidification and ether extraction. Reaction products were separated from nonconverted substrate by thin layer chromatography and measured by liquid scintillatiton spectroscopy. Inhibition of 5-lipoxygenase activity was calculated as the ratio of the amounts of product formed in the presence and absence of inhibitor.

15-lipoxygenase = molecular target: T2, 15-lipoxygenase (Glycine max, UniProt P08170); test: Inhibition of 15-lipoxygenase obtained from soybean; conditions: for inhibition at 10 µM: read-out: % Inhibition at Indicated Concentration, 15-lipoxygenase, 10 uM; for inhibition at 100 µM: read-out: % Inhibition at Indicated Concentration, 15-lipoxygenase, 100 uM
T2 construct: 15-lipoxygenase obtained from soybean; from tissue; host or cells: soybean
T2 sequence (P08170 1-839): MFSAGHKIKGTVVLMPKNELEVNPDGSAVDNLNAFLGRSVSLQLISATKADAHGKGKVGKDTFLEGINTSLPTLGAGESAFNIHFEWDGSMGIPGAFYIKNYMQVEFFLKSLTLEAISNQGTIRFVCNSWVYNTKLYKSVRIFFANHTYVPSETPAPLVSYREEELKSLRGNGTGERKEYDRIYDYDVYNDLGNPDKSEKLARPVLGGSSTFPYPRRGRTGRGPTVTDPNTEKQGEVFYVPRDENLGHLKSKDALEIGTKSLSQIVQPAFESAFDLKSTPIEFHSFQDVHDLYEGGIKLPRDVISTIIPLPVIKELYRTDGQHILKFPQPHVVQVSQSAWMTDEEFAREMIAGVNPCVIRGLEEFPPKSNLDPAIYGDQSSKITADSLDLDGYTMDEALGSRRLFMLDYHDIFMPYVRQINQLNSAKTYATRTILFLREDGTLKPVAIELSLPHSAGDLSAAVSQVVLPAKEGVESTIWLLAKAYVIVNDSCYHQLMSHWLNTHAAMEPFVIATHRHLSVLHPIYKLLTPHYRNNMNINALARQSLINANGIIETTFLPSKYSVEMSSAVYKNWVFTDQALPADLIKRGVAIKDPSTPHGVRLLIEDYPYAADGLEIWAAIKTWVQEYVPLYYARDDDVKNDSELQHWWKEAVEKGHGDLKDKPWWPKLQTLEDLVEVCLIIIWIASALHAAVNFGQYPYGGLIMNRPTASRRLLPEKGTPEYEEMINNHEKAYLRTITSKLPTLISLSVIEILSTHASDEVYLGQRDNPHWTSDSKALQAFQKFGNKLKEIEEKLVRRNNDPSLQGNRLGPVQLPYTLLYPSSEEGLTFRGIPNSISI
Protocol: as §1, with “The compounds of this invention are potent inhibitors of 5-, 12- and 15-lipoxygenase. An assay to determine 5-lipoxygenase activity was performed in incubations containing various concentrations of the test compound and the 20,000×G supernatant from 7.5×10^6 homogenized RBL-1 cells. Reactions” for “Reactions”
(§2) The inhibitory activities of the compounds of this invention against 12- and 15-lipoxygenase can be determined in the foregoing assay in which 12-lipoxygenase obtained from human platelets, or 15-lipoxygenase obtained from soybean, is substituted for the 5-lipoxygenase-containing cell supernatant fraction.

12-lipoxygenase = molecular target: T3, 12-lipoxygenase (Homo sapiens, UniProt P18054); test: Inhibition of 12-lipoxygenase obtained from human platelets; conditions: human platelet 12-lipoxygenase
T3 construct: 12-lipoxygenase obtained from human platelets; from tissue; host or cells: human platelets
T3 sequence (P18054 1-663): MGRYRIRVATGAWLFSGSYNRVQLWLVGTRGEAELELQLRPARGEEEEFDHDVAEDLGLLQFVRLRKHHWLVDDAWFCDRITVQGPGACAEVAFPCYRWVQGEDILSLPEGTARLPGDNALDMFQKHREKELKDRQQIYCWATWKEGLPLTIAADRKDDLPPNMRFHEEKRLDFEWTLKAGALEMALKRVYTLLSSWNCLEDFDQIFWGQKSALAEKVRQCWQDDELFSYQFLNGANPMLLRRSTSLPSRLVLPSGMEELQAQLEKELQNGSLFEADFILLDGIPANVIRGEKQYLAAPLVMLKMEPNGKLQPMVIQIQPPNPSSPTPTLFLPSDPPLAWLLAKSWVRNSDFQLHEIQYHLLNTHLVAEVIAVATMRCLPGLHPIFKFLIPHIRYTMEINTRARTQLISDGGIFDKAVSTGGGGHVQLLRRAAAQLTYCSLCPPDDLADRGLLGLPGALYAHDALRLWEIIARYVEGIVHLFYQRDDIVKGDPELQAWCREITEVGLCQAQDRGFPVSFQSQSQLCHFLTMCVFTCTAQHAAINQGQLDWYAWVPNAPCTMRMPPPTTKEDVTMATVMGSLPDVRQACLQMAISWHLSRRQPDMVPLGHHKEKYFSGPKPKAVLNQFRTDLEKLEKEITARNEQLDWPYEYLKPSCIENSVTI
Protocol: as §1, with “The compounds of this invention are potent inhibitors of 5-, 12- and 15-lipoxygenase. An assay to determine 5-lipoxygenase activity was performed in incubations containing various concentrations of the test compound and the 20,000×G supernatant from 7.5×10^6 homogenized RBL-1 cells. Reactions” for “Reactions”
as §2

[1] = 100 uM, soybean 15-lipoxygenase

- IC50 (5-lipoxygenase): 2.9 µM
- % Inhibition at Indicated Concentration, 15-lipoxygenase, 10 uM (15-lipoxygenase; 10 uM, soybean 15-lipoxygenase): 10%
- % Inhibition at Indicated Concentration, 15-lipoxygenase, 100 uM (15-lipoxygenase; [1]): 70%
- % Inhibition at Indicated Concentration, 12-lipoxygenase, 10 uM (12-lipoxygenase; 10 uM): 74%
- % Inhibition at Indicated Concentration, 12-lipoxygenase, 100 uM (12-lipoxygenase; 100 uM): 77%
Molecule: 6-(1-non-2-enoxy)-2-naphthohydroxamic acid [Example 8]

- IC50 (5-lipoxygenase): 20 µM
Molecule: CCCCCCCCCOc1ccc2cc(C(=O)NO)ccc2c1 [Example 1, 6-(1-nonoxy)-2-naphthohydroxamic acid]

Molecule: CCCCCCCCOc1ccc2cc(C(=O)NO)ccc2c1 [Example 6, 6-(1-octoxy)-2-naphthohydroxamic acid]
- IC50 (5-lipoxygenase): 6.5 µM
- inhibition at 10 µM (12-lipoxygenase; 10 uM, read-out: % Inhibition at Indicated Concentration, 12-lipoxygenase, 10 uM): 68%
- inhibition at 100 µM (12-lipoxygenase; 100 uM, read-out: % Inhibition at Indicated Concentration, 12-lipoxygenase, 100 uM): 71%

- IC50 (5-lipoxygenase): 4.6 µM
Molecule: C=CCOc1ccc2cc(C(=O)NO)ccc2c1 [Example 7, 6-(1-prop-2-enoxy)-2-naphthohydroxamic acid]

Molecule: CCCCOc1ccc2cc(C(=O)NO)ccc2c1 [Example 3, 6-(1-butoxy)-2-naphthohydroxamic acid]
- IC50 (5-lipoxygenase): 2 µM
- inhibition at 10 µM (15-lipoxygenase; 10 uM, soybean 15-lipoxygenase): 45%
- inhibition at 100 µM (15-lipoxygenase; [1]): 51%

Molecule: CCCCOc1ccc2cc(C(=O)N(C)O)ccc2c1 [Example 4, N-methyl-6-(1-butoxy)-2-naphthohydroxamic acid]
- IC50 (5-lipoxygenase): 0.41 µM
- inhibition at 10 µM (15-lipoxygenase; 10 uM, soybean 15-lipoxygenase): 29%
- inhibition at 100 µM (15-lipoxygenase; [1]): 74%

Molecule: COc1ccc2cc(C(=O)NO)ccc2c1 [Example 2, 6-Methoxy-2-naphthohydroxamic acid]
- IC50 (5-lipoxygenase): 8 µM
- inhibition at 10 µM (15-lipoxygenase): 23%
- inhibition at 100 µM (15-lipoxygenase): 44%

Molecule: CCCCCCCOc1ccc2cc(C(=O)NO)ccc2c1 [Example 5, 6-(1-heptoxy)-2-naphthohydroxamic acid]
- IC50 (5-lipoxygenase): 7.1 µM

- IC50 (5-lipoxygenase): 30 µM
Molecule: O=C(NO)c1ccc2cc(OCc3ccccc3)ccc2c1 [Example 9, 6-(benzyloxy)-2-naphthohydroxamic acid]
